pKd: −log10 of the molar value.

The target in one assay is Hrg. As to the kind of experiment: ITC. The conditions noted are these: 10 mM sodium phosphate, 50 mM NaCl, pH 7.4, 25 °C; single-site model.
The target in a further assay is T1, AphB (Vibrio cholerae, UniProt Q9KT56).
T1 construct: gene VC_1049
As to the kind of experiment: biochemical.

What is called pKd is −log10 of the Kd, conventionally taken in molar units. As to `NC(=O)c1ncn([C@@H]2O[C@H](CO)[C@@H](O)[C@H]2O)n1` [ribavirin, 1-D-ribofuranosyl-1H-1,2,4-triazole-3-carboxamide], the pKd was 3.63 at Hrg and roughly 3.52 at AphB.

Source of the values: article PMC5171790, “Ribavirin suppresses bacterial virulence by targeting LysR-type transcriptional regulators” (Scientific Reports, 2016).
